Tests used:
[1] = target: T1, human D4 receptor (D4.2 sub-type) (Homo sapiens, UniProt P21917, DEL265-296); assay: D4 receptor binding assay, displacement of 3H-spiperone; conditions: 3H-spiperone 0.25 nM; for Ki: membranes of HEK cells transfected with human D4.2, * = HCl salt, read-out: D4 RBA Ki; for D4 RBA % Inhibition (@ 1 μM): 1 μM test compound
T1 sequence (P21917 with tags, fused parts or gaps DEL265-296): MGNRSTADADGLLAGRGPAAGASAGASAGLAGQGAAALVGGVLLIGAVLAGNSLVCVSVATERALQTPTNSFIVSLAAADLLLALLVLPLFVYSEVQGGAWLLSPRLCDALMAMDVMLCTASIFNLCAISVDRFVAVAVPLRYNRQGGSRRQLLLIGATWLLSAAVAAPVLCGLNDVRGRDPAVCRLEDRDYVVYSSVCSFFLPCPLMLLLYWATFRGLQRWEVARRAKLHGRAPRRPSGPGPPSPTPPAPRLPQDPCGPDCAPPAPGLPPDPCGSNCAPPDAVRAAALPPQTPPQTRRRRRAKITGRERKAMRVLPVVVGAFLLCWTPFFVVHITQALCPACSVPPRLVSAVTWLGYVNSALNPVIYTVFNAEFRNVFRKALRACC
Experimental: D4 receptor-binding affinities of the compounds were evaluated according to their ability to reduce binding of ^3H-spiperone as compared to the reference compound clozapine. The potency of the test compound to reduce ^3H-spiperone binding directly correlated to its binding affinity for the receptor.
[…] (human embryonic kidney) cells stably transfected with human D4 receptor (D4.2 sub-type) were grown in NUNC cell factories for 5 days (75% confluency) without a media change and removed with versene (approximately 19 mg of cells per cell factory tray). The cells were then centrifuged in a Sorval centrifuge for 10 min, 5000 rpm (GS3 rotor) and the pellets quickly frozen in liquid nitrogen and stored at −80° C. until used in binding assay. When used in the assay, cells were thawed on ice for 20 min and then 10 mL of incubation buffer (50 mM Tris, 1 mM EDTA, 4 mM MgCl2, 5 mM KCl, 1.5 mM CaCl2, 120 mM NaCl, pH 7.4) was added. The cells were then vortexed to resuspend pellet and homogenized with a Kinematica, CH-6010 Kriens-LU, homogenizer for 15 seconds at setting 7. Concentration of receptor protein was determined using the Pierce BCA assay.
The incubation was started by the addition of 100 μl (50 μg protein) membrane homogenate to a solution of 300 μl incubation buffer and 100 μl (0.25 nM final conc.) ^3H-spiperone (90 Ci/mmol, Amersham, diluted in borosilicate glass vial) in 96-well polypropylene plates (1 ML per well). The plates were vortexed and incubated at room temperature for 90 minutes. The binding reaction was stopped by filtering using a Packard Harvester. The samples were filtered under vacuum over glass fibre filter plates (Whatman GF/B) presoaked for 2 hours in 0.3% polyethylenimine (PEI) in 50 mM Tris buffer (pH 7.4). The filters were then washed 6 times with 7 mL ice cold 50 mM Tris buffer (pH 7.4). The filter plates were dried overnight and 35 μl of Microscint-O (Packard) was added. The plates were sealed and counted in the Packard Top Count (3 minutes per well).
The incubation was started by the addition of 100 μl (50 μg protein) membrane homogenate to a solution of 200 μl incubation buffer, 100 μl ^3H-spiperone (90 Ci/mmol, Amersham, diluted in borosilicate glass vial to 0.25 nM final conc.) and 100 μl (30 μM final conc.) of fresh dopamine (Research Biochemicals Inc., light protected and dissolved in incubation buffer) in 96-well polypropylene plates (1 mL per well). The plates were vortexed and incubated at room temperature for 90 minutes at which time the binding reaction was stopped by filtering. The filters were washed and counted using the same procedure as in the total binding assay described above to give the non-specific binding value (NSB).
The incubation was started by the addition, in 96-well polypropylene plates (1 mL per well), of 100 μl (50 μg protein) membrane homogenate to a solution of 200 μl incubation buffer, 100 μl (0.25 nM final-conc.) ^3H-spiperone (90 Ci/mmol, Amersham, diluted in borosilicate glass vial) and 100 μl of test compound that was prepared from 1 mM stock dissolved in DMSO and stored at −20° C. in polypropylene cryogenic storage vials until dilution in incubation buffer in 96-well polypropylene plates. The plates were vortexed and incubated at room temperature for 90 minutes at which time the binding reaction was stopped by filtering. The filters were washed and counted using the same procedure as in the total binding assay described above to give the displacement binding value (BD).
The test compounds were initially assayed at 1 and 0.1 μM and then at a range of concentrations chosen such that the middle dose would cause about 50% inhibition of ^3H-spiperone binding. Specific binding in the absence of test compound (B0) was the difference of total binding (BT) minus non-specific binding (NSB) and similarly specific binding (in the presence of test compound) (B) was the difference of displacement binding (BD) minus non-specific binding (NSB). […]

[2] = system: MK-801 induced stereotypy (locomotion and falling behavior) in CD-1 or C57 male mice; assay: MK-801 Stereotypy in Mice; conditions: In Vivo Method PO, MK-801 0.2 mg/kg; for inhibition in vivo at 20 mg/kg: Mus musculus, read-out: Antag. of MK 801 Stereotypy % Inhib. @ 20 mg/kg
Experimental: Mk-801 dose-dependently induces characteristic stereotypy marked by locomotion and falling behavior. This MK-801 induced behavior can be antagonized by novel neuroleptic agents. This assay can also assess time course effects following drug administration.
CD-1 or C57 male mice are individually placed in activity boxes (8 mice/drug) and allowed to acclimate for 60 minutes. The mice are then administered test compounds either i.p., s.c., or p.o., at 15, 30, or 60 minutes prior to MK-801 (0.2 mg/kg) administration. Mice are observed for the presence of locomotion and falling behaviors 15 minutes following MK-801. For the duration of action studies the test compounds are administered i.p., s.c., or p.o., at 30, 60, 120, 180, and 240 minutes prior to MK-801 administration.

SMILES | Ki [1] [nM] | also measured
O[C@H](CNCc1cccs1)COc1ccc(-c2noc3cc(F)ccc23)cc1 [Example 73, (R)-1-[4-(6-fluoro-benzo[d]isoxazol-3-yl)-phenoxy]-3-[(thiophen-2-ylmethyl)-amino]-propan-2-ol] | 13 | –
COc1cccc(CNC[C@@H](O)COc2ccc(-c3noc4cc(F)ccc34)cc2)c1 [Example 80, (R)-1-[4-(6-fluoro-benzo[d]isoxazol-3-yl)-phenoxy]-3-(3-methoxy-benzylamino)-propan-2-ol] | – | D4 RBA % Inhibition (@ 1 μM) [1]: 76%
CN(CCc1ccccc1)C[C@@H](O)COc1ccc(-c2noc3cc(F)ccc23)cc1 [Example 6] | 42 | –
O[C@@H](COc1ccc(-c2noc3cc(F)ccc23)cc1)CN1CCC(c2noc3cc(F)ccc23)CC1 [Example 34, (R)-1-[4-(6-fluoro-benzo[d]isoxazol-3-yl)-phenoxy]-3-[4-(6-fluoro-benzo[d]isoxazol-3-yl)-piperidin-1-yl]-propan-2-ol] | – | D4 RBA % Inhibition (@ 1 μM) [1]: 46%
Fc1ccc2c(-c3ccc(OCCCN4CCCCCC4)cc3)noc2c1 [Example 156] | 3.88 | inhibition in vivo at 20 mg/kg [2]: 50%
O[C@@H](COc1ccc(-c2noc3cc(F)ccc23)cc1)CN1CCN(c2ccccn2)CC1 [Example 8] | 9 | inhibition in vivo at 20 mg/kg [2]: 37.5%
CN(CCc1ccccc1)C[C@@H](O)COc1ccc(-c2noc3cc(F)ccc23)cc1 [Example 27, (R)-1-[4-(6-fluoro-benzo[d]isoxazol-3-yl)-phenoxy]-3-(methyl-phenethyl-amino)-propan-2-ol] | – | D4 RBA % Inhibition (@ 1 μM) [1]: 66%
CCCC1CCN(CCCOc2ccc(-c3noc4cc(F)ccc34)cc2)CC1 [Example 154] | 11.2 | inhibition in vivo at 20 mg/kg [2]: 25%
O[C@@H](COc1ccc(-c2noc3cc(F)ccc23)cc1)CN1CCC(O)(c2ccccc2)CC1 [Example 38, (R)-1-{3-[4-(6-fluoro-benzo[d]isoxazol-3-yl)-phenoxy]-2-hydroxy-propyl}-4-phenyl-piperidin-4-ol] | – | D4 RBA % Inhibition (@ 1 μM) [1]: 54%
O[C@H](CNCc1ccc(F)cc1)COc1ccc(-c2csc3ccccc23)cc1 [Example 96, (R)-1-(4-benzo[b]thiophen-3-yl-phenoxy)-3-(4-fluoro-benzylamino)-propan-2-ol] | 26 | –
O[C@H](CNC1Cc2ccccc2C1)COc1ccc(-c2noc3cc(F)ccc23)cc1 [Example 89, (R)-1-[4-(6-fluoro-benzo[d]isoxazol-3-yl)-phenoxy]-3-(indan-2-ylamino)-propan-2-ol] | 1.3 | Antag. of MK 801 Stereotypy % Inhib. @ 20 mg/kg [2]: 25%
O[C@H](CNC1CCc2ccccc21)COc1ccc(-c2noc3cc(F)ccc23)cc1 (stereo partly drawn) [Example 72, (R)-1-[4-(6-fluoro-benzo[d]isoxazol-3-yl)-phenoxy]-3-(indan-1-ylamino)-propan-2-ol] | 30 | –
O[C@@H](COc1cccc(-c2noc3ncccc23)c1)CN1CCN(c2ncccn2)CC1 [Example 106, (R)-1-(3-isoxazolo[5,4-b]pyridin-3-yl-phenoxy)-3-(4-pyrimidin-2-yl-piperazin-1-yl)-propan-2-ol] | 8.4 | –
O[C@@H](COc1cccc(-c2noc3ncccc23)c1)CN1CCC(Oc2cccc(Cl)c2)CC1 [Example 102, (R)-1-[4-(3-chloro-phenoxy)-piperidin-1-yl]-3-(3-isoxazolo[5,4-b]pyridin-3-yl-phenoxy)-propan-2-ol] | – | D4 RBA % Inhibition (@ 1 μM) [1]: 59%
O[C@@H](COc1ccc(-c2noc3cc(F)ccc23)cc1)CN1CCC(Oc2cccc(Cl)c2)CC1 [Example 90, (R)-1-[4-(3-chloro-phenoxy)-piperidin-1-yl]-3-[4-(6-fluoro-benzo[d]isoxazol-3-yl)-phenoxy]-propan-2-ol] | 27 | –
Fc1ccc2c(-c3ccc(OCCCN4CCCCCCC4)cc3)noc2c1 [Example 157] | 8.35 | inhibition in vivo at 20 mg/kg [2]: 50%
O[C@@H](COc1cccc(-c2noc3cc(F)ccc23)c1)CN1CCN(c2ncccn2)CC1 [Example 69, (R)-1-[3-(6-fluoro-benzo[d]isoxazol-3-yl)-phenoxy]-3-(4-pyrimidin-2-yl-piperazin-1-yl)-propan-2-ol] | 14 | –
O[C@@H](COc1ccc(-c2noc3cc(F)ccc23)cc1)CN1CCN(c2ccccn2)CC1 [Example 29, (R)-1-[4-(6-fluoro-benzo[d]isoxazol-3-yl)-phenoxy]-3-(4-pyridin-2-yl-piperazin-1-yl)-propan-2-ol] | – | D4 RBA % Inhibition (@ 1 μM) [1]: 41%
Fc1ccc2c(-c3ccc(OCCCNCC4CCCCC4)cc3)noc2c1 [Example 158] | 8.42 | inhibition in vivo at 20 mg/kg [2]: 37.5%
CC1CCN(CCCOc2ccc(-c3noc4cc(F)ccc34)cc2)CC1 [Example 153] | 3.8 | inhibition in vivo at 20 mg/kg [2]: 75%
CCCC1CCN(CCOc2ccc(-c3noc4cc(F)ccc34)cc2)CC1 [Example 146] | 34 | –
Fc1ccc2c(-c3ccc(OCCN4CCC5(CC4)OCCO5)cc3)noc2c1 [Example 152] | 7.1 | –

From patent US7253165B2, “Benzisoxazolyl-, pyridoisoxazolyl-and benzthienyl-phenoxy derivatives useful as D4 antagonists” (Aventis Pharmaceuticals Inc., priority 1999, dated 2007)
